Data on 17 compounds can be found in patent US20100016285A1, “HETEROCYCLIDENE-N-(ARYL) ACETAMIDE DERIVATIVE” (MOCHIDA PHARMACEUTICAL CO., LTD., priority 2007, published 2010).

Read-outs that look alike come from different tables or passages of the source. Where only a bound is given, the exact number is not on record here.

For series [1] the following is noted: cited from earlier work; for Change of rat rectal temperature: reference information (Non-Patent Document 4 or 5); for Change in rectal temperature in rats: from published information (Non-Patent Document 4 or 5).
Series [2] can be described thus: Effects on rectal temperature (8-1), oral administration to rats. Conditions: oral single doses of 3, 10 and 30 mg/kg; 30, 60 and 120 minutes; maximum absolute difference vs vehicle. In kind it is in vivo, rat. The protocol: (8-1) Effects on Rectal Temperature
A test compound was orally administered to rats at single doses of 3, 10 and 30 mg/kg. Then rectal temperature was measured 30, 60 and 120 minutes after administration.
(§1) Differences of the mean value between a group treated with test substance and a vehicle-treated group were calculated at all measuring points and, based on the maximum absolute value of differences, changes in rectal temperature were divided into the following three categories:
(§2) −: the maximum value was less than 0.5 degree Celsius +: the maximum value was more than 0.5 degree but less than 1.0 degree Celsius ++: the maximum value was more than 1.0 degree Celsius

Series [3] in a line: Effects on rectal temperature (8-2), oral administration to rats. The conditions noted are these: single dose of 10 mg/kg, 30, 60 and 120 minutes, maximum absolute difference vs vehicle. In kind it is in vivo, rat. The protocol: (§3) (8-2) Effects on Rectal Temperature
A test compound was orally administered to rats at single dose of 10 mg/kg. Then rectal temperature was measured 30, 60 and 120 minutes after administration.
as §1, §2

The nature of series [4]: Effects on rectal temperature (8-2), administration into tail veins of rats. It is filed as in vivo, rat. Conditions: Intravenous, single dose of 1 mg/kg; 15, 30 and 60 minutes; maximum absolute difference vs vehicle. The protocol:
as §3
A test compound was administered to rats into tail veins at single dose of 1 mg/kg. Then rectal temperature was measured 15, 30 and 60 minutes after administration.
as §1, §2

The target in series [5] is T1, human TRPV1 (Homo sapiens, UniProt Q8NER1).
T1 construct: expressed in transfected cells; host or cells: CHO-K1 cells, pCAGGS vector, clones selected by limiting dilution
The series can be described thus: Capsaicin-induced Ca influx in transformed CHO cells, FDSS-6000 (b-1), A2 value. In kind it is cell-based. Conditions: concentration shifting the capsaicin concentration-reaction curve two times rightward; CHO cells expressing TRPV1.

Series [6] deals with T1, human TRPV1. Put plainly: Capsaicin (10 nmol/L)-induced Ca influx in transformed CHO cells, FDSS-6000 (b-2), IC50. In kind it is cell-based. The source says: (1) Measurement of Capsaicin-Induced Ca Influx in a Transformed CHO Cell Line Expressing Human TRPV1
(a) Establishment of a Transformed CHO Cell Line Expressing Human and Rat TRPV1
Human and rat vanilloid receptor 1 (hTRPV1 and rTRPV1) cDNA was cloned from human brain and rat dorsal root ganglion, respectively. The cloned TRPV1 cDNA was incorporated in a pCAGGS vector. The vector was introduced to a CHO-K1 cell line, thus performing transformation. Clones obtained by limiting dilution were stimulated with capsaicin. Clones with a high responsiveness were selected using an increase in the Ca concentration as an indicator. The selected clones were used for the following experiment.
(b-2) Measurement of Ca Influx using FDSS-6000
The transformed CHO cells expressing human or rat TRPV1 were inoculated in a 96-well plate (with black walls and transparent bottoms, manufactured by Greiner) at a density of 40,000 cells per well. The cells were cultured at 37° C. in 5% CO2 atmosphere for one night. A loading solution of FLIPR Calcium 3 assay kit (manufactured by Molecular Devices Corporation) containing 2.5 mmol/L of probenecid was then added to each of the wells in the same amount as the culture medium, and the cells were cultured at 37° C. for 60 minutes. For three minutes after the cells were stimulated with capsaicin (10 nmol/L), the change of the intracellular Ca concentration was measured using FDSS-6000 (λex: 480 nm, λem: 540 nm, manufactured by Hamamatsu Photonics K.K.). The integrated values of the increase rate of the intracellular Ca concentration were calculated for a group treated with the compounds of the present invention and a group treated with a vehicle. Then, the concentration of the compound of the present invention was calculated that inhibits 50% of the intracellular Ca concentration increase induced by capsaicin (IC50). Using this value as the index, inhibitory effects of the test compounds were compared. In addition, when IC50 value in human TRPV1 was less than 100 nmol/L, it was shown as A in Table 1C.

T1 sequence (Q8NER1 whole entry): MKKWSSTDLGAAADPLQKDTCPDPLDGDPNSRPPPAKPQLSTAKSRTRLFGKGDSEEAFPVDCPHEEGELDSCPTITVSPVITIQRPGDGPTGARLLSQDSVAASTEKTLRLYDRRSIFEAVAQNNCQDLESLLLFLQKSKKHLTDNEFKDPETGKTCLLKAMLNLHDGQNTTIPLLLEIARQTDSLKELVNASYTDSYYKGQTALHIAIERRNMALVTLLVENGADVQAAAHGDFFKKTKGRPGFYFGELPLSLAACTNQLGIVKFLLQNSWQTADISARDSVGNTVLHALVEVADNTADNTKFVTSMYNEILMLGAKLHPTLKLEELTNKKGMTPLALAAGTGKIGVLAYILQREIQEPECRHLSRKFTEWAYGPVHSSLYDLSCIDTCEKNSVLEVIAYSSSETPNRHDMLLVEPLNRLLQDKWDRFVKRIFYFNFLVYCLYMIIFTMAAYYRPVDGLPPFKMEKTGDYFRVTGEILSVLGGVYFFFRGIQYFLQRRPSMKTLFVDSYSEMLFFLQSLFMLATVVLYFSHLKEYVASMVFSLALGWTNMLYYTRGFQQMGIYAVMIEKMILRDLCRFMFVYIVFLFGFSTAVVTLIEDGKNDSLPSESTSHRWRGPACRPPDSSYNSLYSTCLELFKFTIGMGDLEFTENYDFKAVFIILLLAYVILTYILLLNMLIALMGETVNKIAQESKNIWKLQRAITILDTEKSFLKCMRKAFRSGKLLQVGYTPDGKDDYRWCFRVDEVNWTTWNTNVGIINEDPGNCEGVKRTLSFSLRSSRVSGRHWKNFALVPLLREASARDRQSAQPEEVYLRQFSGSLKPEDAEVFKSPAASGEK

Regarding `O=C(Nc1ccc(C(F)(F)F)cn1)N1CCN(c2ncccc2C(F)(F)F)CC1` [Compound A, 4-(3-trifluoromethylpyridine-2-yl)-N-(5-trifuluoromethylpiridine-2-yl)-1-piperadinecarboxamide], in series [1] (Oral), the “Change of rat rectal temperature” value is given as “Increase^1)”. Besides, the “Change in rectal temperature in rats” value in series [1] is given as “increased^1)”.
With `CC(C)(C)c1ccc(/C=C/C(=O)Nc2ccc3c(c2)OCCO3)cc1` [Compound B, (E)-3-(4-t-butylphenyl)-N-(2,3-dihydrobenzo[b][1,4]dioxine-6-yl)acrylamide], the “Change of rat rectal temperature” value in series [1] (Intraperitoneal) is reported as “Increase^1)”. Further, the “Change in rectal temperature in rats” value in series [1] was “Increased^1)”.
Regarding `CC(=O)Nc1nc2c(Oc3cc(-c4ccc(C(F)(F)F)cc4)ncn3)cccc2s1` [Compound C, N-(4-[6-(4-trifluoromethyl-phenyl)-pyrimidin-4-yloxy]-benzothiazol-2-yl)-acetamide, reference compound], the “Change in rectal temperature in rats” value in series [2] is on record as “++ (increased) (the maximum value was more than 1.0 degree Celsius)”. Further, the “Change of rat rectal temperature” value in series [3] is “++ (Increase) (the maximum value was more than 1.0 degree Celsius)”.
With `O=C(/C=C1\CCCOc2cc(C(F)(F)F)ccc21)Nc1cccc2c1CC(O)CN2` (centres unmarked) [Compound D, (E)-2-(8-trifluoromethyl-3,4-dihydrobenzo[b]oxepin-5(2H)-ylidene)-N-(3-hydroxy-1,2,3,4-tetrahydroquinolin-5-yl)acetamide, reference compound], the “Change in rectal temperature in rats” value in series [2] is “++ (increased) (the maximum value was more than 1.0 degree Celsius)”. For the same compound, in series [4], the “Change of rat rectal temperature” value is “+ (Increase) (the maximum value was more than 0.5 degree but less than 1.0 degree Celsius)”.
For the compound `CC1(C)N/C(=C\C(=O)Nc2ccc3c(c2)NC(=O)CC3)c2ccc(C(F)(F)F)cc2O1` [EXAMPLE 26, (Z)-2-(6-trifluoromethyl-3,3-dimethyl-4-oxa-3,4-dihydroisoquinolin-1(2H)-ylidene)-N-(3,4-dihydroquinolin-2(1H)-on-7-yl)acetamide], the A2 value result in series [5] is recorded as “A (A2 value of less than 100 nM)”. Further, the “Change in rectal temperature in rats” value in series [2] is on record as “− (the maximum value was less than 0.5 degree Celsius)”.
In the case of `CN1C(=O)NCc2c(NC(=O)/C=C3\CCCOc4cc(C(F)(F)F)ccc43)cccc21` [Example 302, (E)-2-(3,4-dihydro-8-trifluoromethyl-1-benzoxepin-5(2H)-ylidene)-N-(3,4-dihydro-1-methyl-2(1H)-quinazolinone-5-yl)acetamide], in series [6], the IC50 was less than 0.1 µM.
In series [6], `CN1C(=O)NCc2c(NC(=O)/C=C3\CCOCc4cc(C(F)(F)F)ccc43)cccc21` [Example 303, (E)-2-(3,4-dihydro-8-trifluoromethyl-2-benzoxepin-5(1H)-ylidene)-N-(3,4-dihydro-1-methyl-2(1H)-quinazolinone-5-yl)acetamide] gave a concentration for half-maximal inhibition (IC50) of less than 0.1 µM.
Still for that read-out and setting: the same measure for `CN1C(=O)NCc2c(NC(=O)/C=C3\CCOc4cc(C(F)(F)F)ccc43)cccc21` [Example 304, (E)-2-(7-trifluoromethylchroman-4-ylidene)-N-(3,4-dihydro-1-methyl-2(1H)-quinazolinone-5-yl)acetamide]: less than 0.1 µM.
Take `CN1C(=O)NCc2c(NC(=O)/C=C3\CC(C)(C)Oc4cc(C(F)(F)F)ccc43)cccc21` [Example 305, (E)-2-(2,2-dimethyl-7-trifluoromethylchroman-4-ylidene)-N-(3,4-dihydro-1-methyl-2(1H)-quinazolinone-5-yl)acetamide]: the IC50 in series [6] is less than 0.1 µM. The “Change of rat rectal temperature” value in series [4] was “− (the maximum value was less than 0.5 degree Celsius)”.
With `CCN1C(=O)NCc2c(NC(=O)/C=C3\CCCOc4cc(C(F)(F)F)ccc43)cccc21` [Example 306, (E)-2-(3,4-dihydro-B-trifluoromethyl-1-benzoxepin-5(2H)-ylidene)-N-(3,4-dihydro-1-ethyl-2(1H)-quinazolinone-5-yl)acetamide], the concentration for half-maximal inhibition (IC50) in series [6] was less than 0.1 µM.
Same read-out and setting: the same measure for `CCN1C(=O)NCc2c(NC(=O)/C=C3\CCOCc4cc(C(F)(F)F)ccc43)cccc21` [Example 307, (E)-2-(3,4-dihydro-8-trifluoromethyl-2-benzoxepin-5(1H)-ylidene)-N-(3,4-dihydro-1-ethyl-2(1H)-quinazolinone-5-yl)acetamide]: less than 0.1 µM; for `CCN1C(=O)NCc2c(NC(=O)/C=C3\CCOc4cc(C(F)(F)F)ccc43)cccc21` [Example 308, (E)-2-(7-trifluoromethylchroman-4-ylidene)-N-(3,4-dihydro-1-ethyl-2(1H)-quinazolinone-5-yl)acetamide]: less than 0.1 µM; for `CCN1C(=O)NCc2c(NC(=O)/C=C3\CC(C)(C)Oc4cc(C(F)(F)F)ccc43)cccc21` [Example 309, (E)-2-(2,2-dimethyl-7-trifluoromethylchroman-4-ylidene)-N-(3,4-dihydro-1-ethyl-2(1H)-quinazolinone-5-yl)acetamide]: less than 0.1 µM.
Same read-out and setting: under `CCN1C(=O)NCc2c(NC(=O)/C=C3\CC(CC)(CC)Oc4cc(C(F)(F)F)ccc43)cccc21` [Example 310, (E)-2-(2,2-diethyl-7-trifluoromethylchroman-4-ylidene)-N-(3,4-dihydro-1-ethyl-2(1H)-quinazolinone-5-yl)acetamide] stands less than 0.1 µM; under `CCN1C(=O)NCc2c(NC(=O)/C=C3\CC(COC)(COC)Oc4cc(C(F)(F)F)ccc43)cccc21` [Example 311, (E)-2-(2,2-bis(methoxymethyl)-7-trifluoromethylchroman-4-ylidene)-N-(3,4-dihydro-1-ethyl-2(1H)-quinazolinone-5-yl)acetamide], less than 0.1 µM.
On the same count and under the same terms, under `CCN1C(=O)NCc2c(NC(=O)/C=C3\CC4(CCOCC4)Oc4cc(C(F)(F)F)ccc43)cccc21` [Example 312, (E)-2-(7-trifluoromethyl-spiro[chroman-2,4′-tetrahydropyran]-4-ylidene)-N-(3,4-dihydro-1-ethyl-2(1H)-quinazolinone-5-yl)acetamide] stands less than 0.1 µM; under `CN1C(=O)NCc2c(NC(=O)/C=C3\NC(C)(C)Oc4cc(C(F)(F)F)ccc43)cccc21` [Example 313, (Z)-2-(2,3-dihydro-2,2-dimethyl-7-trifluoromethyl-4H-1,3-benzoxazin-4-ylidene)-N-(3,4-dihydro-1-methyl-2(1H)-quinazolinone-5-yl)acetamide], less than 0.1 µM.
